SMILES strings stand for the structures.

The data set can be described thus: gradient 5% acetonitrile 3 min, to 50% in 2 min, to 85% in 15 min, held 3 min, 100 µL/min. Particulars: column: Zorbax Extend-C18 2.1 x 50 mm; eluents: water / acetonitrile, 0.1% formic acid. In a few lines: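 Using water and acetonitrile that each contained 0.1% formic acid, mixtures of ~100 pure standards were separated at 100 μL/min on a Zorbax Extend-C18 column (2.1 × 50 mm, 1.8 μm). The HPLC fed a quadrupole time-of-flight mass spectrometer working in positive and negative ionization mode, with dead and dwell volumes of 40 μL and 900 μL. Data were acquired over 3 months. Retention time was read from computationally picked adduct peaks after manual inspection of each.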
In the case of `O=C(c1ccc(F)cc1F)N1CCC2(CC1)N=C(c1ccc(Cl)cc1)NO2`, the RP-LC retention time is 900 s. Molecule `O=C(Cn1cccc(-c2nc(-c3ccccc3)no2)c1=O)Nc1ccccc1Cl` showed an RP-LC retention time of 885 s. The figure for `COc1ccccc1OCCNc1nc2ccncc2n(C(C)C)c1=O` is 573 s; for `COC(=O)[C@@H]1[C@H]2C[C@@H]3c4[nH]c5ccccc5c4CCN3C[C@@H]2CC[C@@H]1O` it is 660 s; for `Cc1nnc2cc(N3CCN(C(=O)Nc4cccc(Cl)c4)CC3)cnn12` it is 596 s. The figure for `Cc1ccc(Nc2nc(-c3ccc(Cl)cc3)cs2)nc1` is 1050 s; for `Cc1cc(Nc2ccccc2)nc(N2CCN(C(=O)Nc3ccccc3)CC2)n1` it is 693 s; for `CCc1nc2cc3c(cc2n1CC(=O)N1CCOCC1)OCCO3` it is 567 s. In the case of `CCn1ccc(C(=O)Nc2cnc(-c3cccc(Cl)c3)nc2)n1` it was 1020 s; in that of `Cc1ccc(NS(=O)(=O)c2cc(-c3nc(C(C)(C)C)cs3)cs2)c(Cl)c1`, 1320 s. For `CC(C)CNC(=O)C1CC(=O)N(CCc2c[nH]c3ccc(Cl)cc23)C1` (stereo unspecified), the RP-LC retention time stood at 781 s. In the case of `CC(C)c1ncc(CO)n1Cc1c(Cl)cccc1Cl` it was 663 s; in that of `Cc1noc(-c2nn(C)c3c2CN(C(=O)C2CCCC2)CC3)n1`, 722 s; in that of `CCN1c2ccccc2C(=O)NC12CCN(C(=O)c1ccccc1OC)CC2`, 732 s.

With `O=C(NCc1ccc2c(c1)OCO2)C1CCN(C(=O)c2ccccc2)CC1`, the RP-LC retention time turned out to be 706 s.

For the molecule `CCn1cnc(S(=O)(=O)N2CCCC(C(=O)NCc3ccc(F)cc3)C2)c1` (stereo unspecified), the RP-LC retention time came out at 712 s. `COc1cc2c(cc1OC)C(C1(O)CCCCC1)NCC2` (stereo unspecified): the RP-LC retention time worked out at 660 s.

`CCNC(=O)N1CCCC1c1nc(-c2ccc(OC)cc2)no1` (stereo unspecified) came in with an RP-LC retention time of 761 s. In the case of `CCOc1cccc(-c2noc(-c3nnn4c3COC(c3cccc(OC)c3)C4)n2)c1` (stereo unspecified), the RP-LC retention time came out at 1210 s.

Molecule `Cc1ccsc1C(=O)N1CCCn2cc(-c3ccccc3)nc21` displayed an RP-LC retention time of 686 s. On to `Cc1ccnc(NC(=O)C2CCN(S(=O)(=O)c3ccc4c(c3)sc(=O)n4C)CC2)c1`, for which the RP-LC retention time was 645 s. The figure for `COc1ccc(-c2noc(CC3CCN(C(=O)C4(c5ccc(OC)cc5)CC4)CC3)n2)cc1` is 1030 s; for `CCN1C(=O)C2CCCCN2c2ccc(C(=O)N3CCN(c4ccccc4)CC3)cc21` (stereo unspecified) it is 974 s.

`COc1ccc2[nH]c(=O)c(CCC(=O)NCCCN3CCCC3=O)cc2c1` gave an RP-LC retention time of 592 s. Molecule `COc1ccc(OC)c(NC(=O)c2cc(C)n3nc(-c4ccco4)cc3n2)c1` gave an RP-LC retention time of 1160 s. Molecule `Cc1ccc(CNC(=O)COc2cc(C)nc(N3CCN(c4ccccc4)CC3)n2)cc1` gave an RP-LC retention time of 922 s. As for `CCN1CCN(CCNC(=O)CN2CCCc3nc(C4CC4)ncc3C2=O)CC1`, the RP-LC retention time came out at 564 s. The figure for `CCOc1ccc(S(=O)(=O)Nc2ccc(-c3cn4ccc(C)nc4n3)cc2)cc1` is 661 s.

Molecule `CC1(C)Cc2cccc(OCc3ccc(C(=O)NCCN4CCOCC4)cc3)c2O1` returned an RP-LC retention time of 586 s. The figure for `COCCN(CC(=O)N1CCc2sccc2C1COc1ccc(Cl)cc1)C(=O)COC` (stereo unspecified) is 839 s; for `COc1cc(OC)cc(-c2nc(-c3ccc4ncn(C(C)C)c4c3)no2)c1` it is 843 s. The molecule `Cc1cc2nn(CC(=O)N3CCC(C)CC3)c(=O)n2c(-c2cccc(Cl)c2)n1` gave an RP-LC retention time of 894 s. In the case of `CC(=O)Nc1cccc(C(=O)NCCc2c[nH]c3ccc(F)cc23)c1` it was 711 s; in that of `O=C(Nc1ccc(Cn2cncn2)cc1)c1ccc(Br)o1`, 708 s. In the case of `COc1ccccc1NC(=O)N1CCOc2ccc(Cl)cc21` it was 1050 s; in that of `Cn1c(=O)c(-c2ccc(C(=O)N3CCOCC3)cc2)nc2ccccc21`, 698 s; in that of `CC12CC(NC(=O)N1c1cccc(C(=O)NCc3cccnc3)c1)c1cc(Br)ccc1O2` (stereo unspecified), 642 s. `O=C(Nc1cnn(-c2ncc(N3CCCCC3)cn2)c1)c1ccncc1` gave an RP-LC retention time of 662 s. In the case of `COc1ccc(-c2noc(-c3ccc(N4CCN(C(=O)c5ccco5)CC4)nc3)n2)cc1` it was 989 s; in that of `CC(O)(CNS(=O)(=O)c1cccnc1)c1ccco1` (stereo unspecified), 604 s. As for `CC(C)n1c(N2CCCN(C(=O)c3ccco3)CC2)cc(=O)n(C(C)C)c1=O`, the RP-LC retention time is 756 s. Turning to `COc1ccc(OC)c(NC(=O)c2cn3c(n2)CSCC3)c1`, the RP-LC retention time came out at 767 s.

The molecule `CC1CCCCN1CCCNC(=O)CCC(=O)N1CCc2c(c(C(=O)N3CCCCC3)nn2C)C1` (stereo unspecified) gave an RP-LC retention time of 578 s. For `CN(CC1CCOC1)C(=O)c1cccc(Cl)c1` (stereo unspecified), the RP-LC retention time is 672 s. The figure for `CC1(C)CC(=O)CC(C)(C)N1O` is 666 s; for `COC(=O)c1ccc(NC(=O)CSc2nnc(CN3CCOCC3)o2)cc1` it is 576 s; for `COc1ccc(CNC(=O)CCc2nc3ccc(C)cc3c(=O)n2C)cc1` it is 748 s. The figure for `Cc1ccc(N2CCC(NC(=O)c3ccc(C)s3)C2=O)cc1` (stereo unspecified) is 842 s. The figure for `O=C(Nc1nc(CC(=O)N2CCCc3ccccc32)cs1)C1CC1` is 739 s; for `C[C@@H]1C(=O)O[C@H]2C[C@@]34[C@H]5C[C@@H](C(C)(C)C)[C@]36[C@@H](OC(=O)[C@@H]6O)O[C@@]4(C(=O)O5)[C@]21O` it is 715 s; for `CC(=O)Nc1ccc(N(Cc2nnc3n2CCCCC3)C(=O)Nc2ccc(Cl)cc2)cc1` it is 690 s. In turn, `CCCc1nc2c(c(=O)n1CC(=O)NCc1cccs1)CCN(Cc1ccccc1)C2` displayed an RP-LC retention time of 641 s. In the case of `Cc1ccn2cc(-c3ccc(NC(=O)c4cccc(F)c4)cc3)nc2n1` it was 647 s. The molecule `O=C(C1CCCO1)N1N=C(c2ccc(Br)cc2)CC1c1ccco1` (stereo unspecified) gave an RP-LC retention time of 892 s. Consider `CCn1cc(C)c(C(=O)O)c1CC(=O)Nc1cccc(C)n1`, for which the RP-LC retention time was 678 s. In turn, `Cc1scc2nc(C(=O)Nc3ccccc3)nc(N(C)C)c12` returned an RP-LC retention time of 658 s. In turn, `CN1CCCc2cc(C(CNC(=O)C(=O)NCCC3=CCCCC3)N3CCCC3)ccc21` (stereo unspecified) registered an RP-LC retention time of 803 s.

Molecule `CCC(CO)NCc1ccc(-c2cccc(Cl)c2)o1` (stereo unspecified) came in with an RP-LC retention time of 658 s. In the case of `CCCc1cc(N2CCN(c3ccccn3)CC2)n2nc(C)c(-c3ccccc3)c2n1` it was 758 s.

Molecule `CC(NC(=O)C1CCN(C(=O)c2ncn3c2COC(c2ccc(Cl)cc2)C3)CC1)c1ccccc1` (stereo unspecified) showed an RP-LC retention time of 854 s.

Consider `Cc1ccc(C)c(NC(=O)N2CCC3(CC2)NC(=O)c2ccccc2O3)c1`, for which the RP-LC retention time was found to be 766 s. The figure for `COc1cccc(CNC(=O)Cn2cnc3c(sc4nc(-c5ccccc5)ccc43)c2=O)c1` is 975 s.

In turn, `CCC(C)N(CC(=O)N(Cc1ccco1)CC1CCCO1)C(=O)c1ccc(C)cc1` (stereo unspecified) gave an RP-LC retention time of 917 s.

Molecule `CCc1nc2c(c(=O)n1CC(=O)Nc1cccc(OC)c1)CN(Cc1ccccc1)CC2` registered an RP-LC retention time of 652 s.

With `CC1CCc2nn(CC(=O)Nc3ccc(F)cc3F)cc2C1` (stereo unspecified), the RP-LC retention time amounted to 875 s.

For `CCCNC(=O)C1CCCN(c2cnc3nc(CC)c(CC)nc3c2)C1` (stereo unspecified), the RP-LC retention time was determined as 755 s.

In turn, `COc1cc(C(O)CCBr)c(OC)cc1C` (stereo unspecified) returned an RP-LC retention time of 1020 s. For `COc1ccc(CNC(=O)Cn2nc3c(Oc4ccccc4C)nccn3c2=O)cc1`, the RP-LC retention time amounted to 957 s. In the case of `O=C(NCc1ccc2c(c1)OCO2)C1CCCN(C(=O)c2cc(-c3cccnc3)n[nH]2)C1` (stereo unspecified) it was 584 s. Turning to `CCOC(=O)C1=NN(c2ccccc2)CC1C(=O)OC` (stereo unspecified), the RP-LC retention time turned out to be 917 s. The figure for `COC(=O)CCNC(=O)C1c2ccccc2C(=O)N(C2CCCC2)C12CCCCC2` (stereo unspecified) is 903 s. `CCCN1C(=O)COc2ccc(-c3noc(-c4ccccc4Br)n3)cc21` registered an RP-LC retention time of 1280 s. In the case of `CCc1nc2c(c(=O)n1CC(=O)Nc1cc(C)ccc1OC)CN(Cc1ccccc1)CC2` it was 681 s.

`N#Cc1ccc(-c2nc(-c3ccc4c(c3)ncn4CCN3CCCCC3)no2)cc1` displayed an RP-LC retention time of 632 s.

`CCS(=O)(=O)c1cccc(-c2cc(C(=O)NC3CCN(C)CC3)c(C)c3[nH]c4ncc(C)cc4c23)c1` showed an RP-LC retention time of 645 s. Take `Cc1nn(-c2cc(N(C)C)ncn2)c(C)c1CCC(=O)NCc1ccco1`: the RP-LC retention time was 684 s. On to `Cc1nnc2c(=O)n(CC(=O)NCc3cccc(C(F)(F)F)c3)c3cccnc3n12`, for which the RP-LC retention time turned out to be 738 s. In the case of `Cc1ccc(N2CCN(C(=O)C3CCc4sc(C(=O)N(C)C)cc4C3)CC2)cc1` (stereo unspecified) it was 825 s. For `CCc1noc2nc(CCC(=O)NCc3ccco3)nc(N3CCCCC3)c12`, the RP-LC retention time amounted to 829 s. In turn, `Cc1ccc(Cn2c(=O)c3sccc3n(Cc3nc(-c4ccc(C)cc4)no3)c2=O)cc1` yielded an RP-LC retention time of 1140 s. In the case of `COc1c(C(=O)NC2CC2)sc2ccc(Cl)cc12` it was 965 s.

The record behind these values is the METLIN SMRT retention time set (Domingo-Almenara et al. 2019).
